According to patent publication US11957139B2, “Compositions for improving nitrogen utilization in a ruminant” (Evonik Operations GmbH, priority 2016, dated 2024):
Where two headings read alike, the source gives them in different places.

Key:
lactating heifers = assay: Milk production after ruminal versus abomasal infusion (Example 4); assay type: in vivo, Holstein heifers; settings: infused in the abomasum compared to equivalent amount in the rumen
Text: The experimental procedure and animal treatments is the same as described above for example 1, except that the Holstein heifers were lactating heifers.

Holstein heifers [1] = test system: Holstein heifers
Method: The objective of this experiment was to evaluate the effects of ruminal versus abomasal infusion of ammonia (an equivalent source of NPN) on food intake in ruminants.
Feed intake was calculated according to the following formula: Feed intake=[amount of feed provided at the beginning of the day]−[amount of feed left intact (i.e. not eaten) after a period of 24 hours]). Results

Holstein heifers [2] = assay: Somatic growth after ruminal versus abomasal infusion (Example 3); assay type: in vivo; settings: infused in the abomasum compared to equivalent amount in the rumen; at least 2 months
Text: Heifers are individually weighed on the first day of each experimental period (i.e. day 1) and on the last day of the experimental period (i.e., after at least 2 months, such as after 6 months). […] An increase in body weight indicates an increase in somatic growth while a decrease or no change in body weight indicates a decrease in somatic growth or unchanged somatic growth, respectively.

Holstein heifers [3] = assay: Nitrogen intake, excretion, digestibility and retention after ruminal infusion of urea sources; assay type: in vivo
Method: Each heifer was rumen-cannulated.
On the first and second day of experimental period, faeces were collected during 48 h. During this period wood shaves were withdrawn from the mattresses. On day 1, before the ruminal infusion of tested articles, a baseline sample was taken directly from the rectum of each animal. From the moment of ruminal incubation, total faeces were collected for 48 hours. During collection days, faeces were well homogenized, weighted, and a sub-sample (≈200 g) taken on the following hours of the day: 0800 (only for day 2) 1100, 1500 and 1900.

Holstein heifers [4] = settings: 150 g urea equivalent infused into rumen; 0-12 h post-infusion; FIG. 18
Text: Three non-lactating, non-pregnant Holstein heifers were used for the experiment. The Holstein heifers were on average 48±0.5 months of age and weighed on average 800 kg. Each heifer was rumen-cannulated. The experimental design was a 3×3 Latin Square, involving 3 treatments, 3 periods and 3 animals. Experimental unit is the combination animal×period, totalizing 9 experimental units.
The experiment consisted of 3 treatment regimens (i.e. treatment groups 1, 2, and 3). Specifically, each treatment group differed with respect to the NPN composition they received.
Heifers were housed in a tie-stall barn with individual water and feed troughs, rubber mattresses, and wood shaving bedding. The tie-stall was cleaned and the wood shaving replaced daily. Heifers were fed low quality hay ad libitum. Each experimental period last 4 days in which test products were infused in the rumen (day one) and samples were taken on the following 48 h.
Rumen fluid samples were taken at 0, 0.5, 1, 2, 3, 6, and 12 h post-infusion through a tube adapted to the rumen cannula.

Holstein heifers [5] = assay: Apparent fiber digestibility after ruminal versus abomasal infusion of urea; assay type: in vivo
Text: The experiment included a four-week adaptation period to a basal diet (in this case mimicking a winter tropical diet (winter tropical climate being an Aw climate) in addition to the distinct experimental periods (i.e. one experimental period per treatment regimen listed in Table 1), each lasting fourteen days.
Each heifer was rumen-cannulated. A tube was inserted into the abomasum via the rumen cannula to bypass the rumen.
The experiment consisted of two treatment groups subjected to different treatment regimens.
After the adaptation period, the heifers were exposed to the treatment regimens (i.e. consecutively, starting with treatment 1 and followed by treatment 2) as described in Table 1 (2 weeks per treatment regimen).
Heifers were fed low quality hay twice a day (08 h 30 and 16 h 30). The heifers were allowed to eat ad libitum during both feeding events.
An amount of one kilogram of compound feed (referred to as the ‘compound feed trial’), as a meal, was given in the morning (08 h 30) through the cannula (see Table 2). The details over the compositions of hay and compound feed (‘compound feed adaptation’ and ‘compound feed trial’) are presented in Table 3 below. Animals had free access to water troughs throughout the day.
All heifers were simultaneously infused in the rumen and the abomasum. This experimental design allowed each heifer to receive every treatment (consecutively), which provided 4 replicates per treatment. The two experimental periods described in Table 1 lasted 14 days each. For each individual treatment regimen, the fourteen-day period consisted of 8 days of adaptation, 4 days for sampling, and 2 days of rest without any infusions.
Whenever the treatment solution was infused in the rumen, a placebo solution (e.g. saline solution) was infused in the abomasum and whenever the treatment solution was infused in the abomasum, a placebo solution (e.g. water) was infused in the rumen. In the present case, it was necessary to infuse a saline solution in the abomasum (as opposed to water) in order to avoid problems related to osmotic pressure due to the small volume of the abomasum. This situation requires the use of a solution, which has an osmotic pressure similar to that of blood. A physiological saline solution fulfils this requirement. […] Therefore, infusion of water is suitable for the rumen.
Each heifer was equipped with two infusion lines via the cannula bung. Specifically, the first line delivered the solution straight into the rumen; the second line passed through the rumen into the omasum, using a rubber flange as anchor, delivering the pumped solution into the abomasum (Gressley et al. (2006)).
Infusate levels and infusion rates were checked 3 times per day (at 09:00 h;16:00 h and 21:00 h). Whenever necessary, manifold tubes with different inner diameter were replaced to adjust rate or level of solution, aiming to reach 10 L (or 5 L during the first two days of the period) infused continually in 24 h. The infusion rate was set at 3.5 mL/min (5 L/d) for the first two days of adaptation in each experimental period and 6.9 mL/min (10 L/d) for the remaining days.
Samples of compound feed and hay were taken from day 09 to 12 of each experimental period. After samples were collected, a portion was used to determine dried matter content (DM) at 60° C. 72 h and the rest was stored at −20° C. in a large bag labelled with the period number and trial code.

[6] = ammonia infused into abomasum over 24 h (AA)
[7] = ammonia infused into rumen over 24 h (AR)
[8] = during the 48 hours following N infusion into rumen
[9] = urea 127 g/day infused into the abomasum over 24 h (UA)
[10] = urea 127 g/day infused into the rumen once a day (UR)

## N [ammonia]
Lactating heifers
  milk production at the end of the treatment: increased milk production
Holstein heifers [1]; [6]
  Feed intake, Crude Protein (Feed): 0.581 kg/day
  Feed intake, Crude Protein (Total): 0.952 kg/day
  Feed intake, Hay Dry Matter: 6.09 kg/day
  Feed intake, Neutral detergent fiber: 4.38 kg/day
  Feed intake, Organic Matter: 6.58 kg/day
  Feed intake, Total Dry Matter: 6.97 kg/day
Holstein heifers [1]; [7]
  Feed intake, Crude Protein (Feed): 0.537 kg/day
  Feed intake, Crude Protein (Total): 0.907 kg/day
  Feed intake, Hay Dry Matter: 5.37 kg/day
  Feed intake, Neutral detergent fiber: 3.87 kg/day
  Feed intake, Organic Matter: 5.90 kg/day
  Feed intake, Total Dry Matter: 6.26 kg/day
Holstein heifers [1]; ammonia into abomasum relative to ammonia in the rumen
  feed intake of hay and total nutrient, in words: increase in feed intake
Holstein heifers [2]
  body weight at the end of the treatment: increased body weight

## urea
Lactating heifers
  milk production at the end of the treatment: increased milk production
Holstein heifers [3]; ((N intake − N excreted)/N intake) * 100
  N digestibility: 61.81%
Holstein heifers [3]; Faecal N excretion + Urinary N excretion, 48 h
  Total N excretion: 228.22 g
Holstein heifers [3]; [8]
  N excretion faeces: 119.92 g
  N excretion urine: 108.30 g
Holstein heifers [3]; total N intake in 48 h including N infusion into rumen
  N Intake: 307.58 g
Holstein heifers [4]
  ruminal ammonia concentration over time, in words: higher
Holstein heifers [2]
  body weight at the end of the treatment: increased body weight
Holstein heifers [5]; [9]
  Apparent fiber digestibility, Dry matter: 51.36%
  Apparent fiber digestibility, Neutral detergent fiber: 48.27%
  Apparent fiber digestibility, Organic matter: 52.79%
Holstein heifers [5]; [10]
  Apparent fiber digestibility, Dry matter: 49.35%
  Apparent fiber digestibility, Neutral detergent fiber: 43.75%
  Apparent fiber digestibility, Organic matter: 50.18%
Holstein heifers [5]; urea in the abomasum compared to urea in the rumen
  apparent fiber digestibility, in words: increased
